Measured values published in PMC8914530 (Data in Brief, 2022).
Read-outs that look alike come from different tables or passages of the source.

Assays:
CYP2B6 = target: T1, CYP2B6 (Homo sapiens, UniProt P20813); experiment: CYP2B6 Vivid CYP450 Blue fluorescent inhibition assay; assay type: biochemical; details: for CYP2B6 Hillslope: variable slope sigmoidal fit, GraphPad Prism 7.0; for IC50 Ratio: ratio of the IC50 values from the two CYPs, + indicates greater affinity for CYP2B6, – greater affinity for CYP3A4
T1 sequence (P20813 1-491): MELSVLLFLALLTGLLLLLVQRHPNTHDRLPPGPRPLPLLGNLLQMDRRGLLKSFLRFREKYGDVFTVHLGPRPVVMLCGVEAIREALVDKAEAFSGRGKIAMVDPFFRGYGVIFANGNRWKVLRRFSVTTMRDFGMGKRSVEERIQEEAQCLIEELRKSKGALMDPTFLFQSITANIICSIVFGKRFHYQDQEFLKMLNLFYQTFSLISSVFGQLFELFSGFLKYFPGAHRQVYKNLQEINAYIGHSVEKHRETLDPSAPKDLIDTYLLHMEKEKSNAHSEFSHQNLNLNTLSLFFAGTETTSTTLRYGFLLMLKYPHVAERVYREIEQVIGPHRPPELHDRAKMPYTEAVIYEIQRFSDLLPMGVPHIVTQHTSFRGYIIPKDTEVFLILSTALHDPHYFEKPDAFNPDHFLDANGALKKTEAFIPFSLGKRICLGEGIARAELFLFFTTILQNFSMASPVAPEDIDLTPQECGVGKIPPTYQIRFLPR

CYP3A4 = CYP3A4 (Homo sapiens, UniProt P08684); experiment: CYP3A4 Vivid CYP450 Red fluorescent inhibition assay; assay type: biochemical; details: for CYP3A4 Hillslope: variable slope sigmoidal fit, GraphPad Prism 7.0
Chain of CYP3A4 (P08684 whole entry): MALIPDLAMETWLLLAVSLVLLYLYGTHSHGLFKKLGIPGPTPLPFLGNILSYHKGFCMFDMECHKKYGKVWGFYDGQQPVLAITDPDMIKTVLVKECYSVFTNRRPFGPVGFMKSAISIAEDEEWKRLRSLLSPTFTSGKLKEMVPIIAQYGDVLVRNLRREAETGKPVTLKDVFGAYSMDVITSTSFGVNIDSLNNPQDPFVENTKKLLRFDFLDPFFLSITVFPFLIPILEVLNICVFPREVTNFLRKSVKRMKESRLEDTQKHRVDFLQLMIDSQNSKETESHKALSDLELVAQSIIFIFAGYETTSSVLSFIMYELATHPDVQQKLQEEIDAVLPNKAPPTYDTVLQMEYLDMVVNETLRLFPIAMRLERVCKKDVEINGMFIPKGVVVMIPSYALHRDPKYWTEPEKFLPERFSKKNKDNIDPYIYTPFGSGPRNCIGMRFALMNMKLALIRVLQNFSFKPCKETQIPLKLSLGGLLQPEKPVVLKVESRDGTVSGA

Row | Compound | IC50 (CYP2B6) [µM] | CYP2B6 Hillslope (CYP2B6) | IC50 (CYP3A4) [µM] | CYP3A4 Hillslope (CYP3A4) | IC50 Ratio (CYP2B6) | IC50 (CYP3A4; read-out: CYP3A4 IC50, CYP3A4-transfected baculosomes, concentration-response, n = 3–12) [µM]
1 | C[C@]12CC[C@@H]3c4ccc(O)cc4CC[C@H]3[C@@H]1CC[C@@H]2O [Estradiol] | 42.2 | −0.33 | 2.78 | −0.903 |  | 
2 | CC/C=C\C/C=C\C/C=C\CCCCCCCC(=O)O [α-Linolenic acid] | 7.32 | −1.45 | 4.04 | −0.701 |  | 
3 | CCNc1nc(Cl)nc(NC(C)C)n1 [Atrazine] | 0.144 | −0.34 |  |  |  | 
4 | CCCCC/C=C\C/C=C\C/C=C\C/C=C\CCCC(=O)O [Arachidonic acid] | 1.04 | −0.59 | 13.7 | −4.08 |  | 
5 | Oc1cc(Cl)ccc1Oc1ccc(Cl)cc1Cl [Triclosan] | 0.944 | −1.30 |  | −1.46 |  | 
6 | O=S1OCC2C(CO1)C1(Cl)C(Cl)=C(Cl)C2(Cl)C1(Cl)Cl (stereo not drawn) [Endosulfan] | 0.003 | −0.66 | 0.0046 | −0.261 |  | 
7 | CCOP(=S)(OCC)Oc1nc(Cl)c(Cl)cc1Cl [Chlorpyrifos] | 0.0092 | −2.09 | 0.28 |  | +30.4 | 
8 | Nonylphenol |  | −1.21 |  | −1.02 |  | 6.25
9 | C[C@]12CC[C@H]3[C@@H](CCC4=CC(=O)CC[C@@]43C)[C@@H]1CC[C@@H]2O [Testosterone] | 90.2 | −0.32 |  |  |  | 
10 | CC/C=C\C/C=C\C/C=C\C/C=C\C/C=C\C/C=C\CCC(=O)O [Docosahexaenoic acid] | 2.06 | −1.22 | 5.08 | −5.0 |  | 
11 | CCOP(=S)(OCC)Oc1ccc([N+](=O)[O-])cc1 [Parathion] | 0.026 | −1.13 | 0.729 | −0.094 | +28.03 | 
12 | CCCCCCCCCCCCCCCC(=O)O [Palmitic acid] |  |  | 19900 |  |  | 
13 | CC(C)(c1ccc(O)cc1)c1ccc(O)cc1 [Bisphenol A] | 8.44 | −2.65 |  |  |  | 
14 | Clc1ccccc1CN1CCc2sccc2C1 [Ticlopidine, reference compound] |  | −0.95 |  |  |  | 
15 | CCCCCCCC/C=C\CCCCCCCC(=O)O [Oleic acid] | 9.3 | −2.45 |  |  |  | 
16 | C[C@H](CCC(=O)O)[C@H]1CC[C@H]2[C@@H]3CC[C@@H]4C[C@H](O)CC[C@]4(C)[C@H]3CC[C@]12C [Lithocholic acid] | 2.47 | −0.51 |  |  |  | 
17 | CC1(C)C(C=C(Cl)Cl)C1C(=O)OC(C#N)c1cccc(Oc2ccccc2)c1 (stereo not drawn) [Cypermethrin] | 6040 | −0.79 |  |  |  | 
18 | CCCCC/C=C\C/C=C\CCCCCCCC(=O)O [Linoleic acid] | 9.19 | −0.69 | 18.3 | −4.46 |  | 
19 | C[C@H](CCC(=O)O)[C@H]1CC[C@H]2[C@@H]3[C@H](O)C[C@@H]4C[C@H](O)CC[C@]4(C)[C@H]3CC[C@]12C [Chenodeoxycholic acid] | 49 | −1.32 |  |  |  | 
20 | O=C(O)c1ccccc1C(=O)O [Phthalic acid] | 1170 | −1.71 |  |  |  | 
21 | CCOP(=S)(OCC)Oc1cc(C)nc(C(C)C)n1 [Diazinon] | 0.0754 | −1.51 |  | −2.52 |  | 
